Assay results taken from article PMC12635268, “Novel antimicrobial peptides and peptide-microbiome crosstalk in Appalachian salamander skin” (NPJ Biofilms and Microbiomes, 2025).
Where two headings read alike, the source gives them in different places.

What was measured:
Experiment in all cases: microbe, parasite or virus in culture
S. aureus ATCC 43300 = settings: for Bacterial MIC: S. aureus 43300; for MIC: Staphylococcus aureus
Method in brief: (§1)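 Broth microdilution MIC in cation-adjusted Mueller-Hinton broth, final inoculum 1 × 10⁵ CFU/mL. Peptides in 0.02% TFA + 0.04% BSA, 2-fold series 0.25 to 128 μg/mL, duplicate, 37 °C for 20 h without agitation. Growth imaged; MIC read visually per CLSI.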

E. faecium ATCC 19434 = settings: Enterococcus faecium
Method in brief: as §1

[1] = tested on: K. pneumoniae ATCC 700603; settings: Klebsiella pneumoniae
Method in brief: as §1

E. faecium ATCC 49224 = settings: Enterococcus faecium
Method in brief: as §1

P. aeruginosa ATCC 27853 = settings: Pseudomonas aeruginosa
Method in brief: as §1

P. aeruginosa MRSN 5519 = settings: Pseudomonas aeruginosa
Method in brief: as §1

E. coli ATCC 35218 = settings: for Bacterial MIC: E. coli 35218; for MIC: Escherichia coli
Method in brief: as §1

A. baumannii ATCC 19606 = settings: Acinetobacter baumannii
Method in brief: as §1

S. aureus ATCC 25923 = settings: for Bacterial MIC: S. aureus 25923; for MIC: Staphylococcus aureus
Method in brief: as §1

K. pneumoniae ATCC 13883 = settings: Klebsiella pneumoniae
Method in brief: as §1

P. aeruginosa PA01 = assay type: cell-based; settings: Pseudomonas aeruginosa
Method in brief: as §1

P. aeruginosa PA01 (Si) = assay type: cell-based; settings: P. aeruginosa PA01 (Si), not typical ESKAPEE strain
Description: Supplement 41522_2025_837_MOESM13_ESM.xlsx, sheet "Table_S13_ESKAPEE-MIC" | column: Bacterial MIC (µg/mL)

C[C@H]1COc2c(N3CCN(C)CC3)c(F)cc3c(=O)c(C(=O)O)cn1c23 [Levofloxacin, reference compound]
4 to 8 µg/mL: MIC (E. faecium ATCC 19434; ATCC19434, read-out: Bacterial MIC, E. faecium 19434, Week 2 (12/14/2023))
0.25 µg/mL: MIC (S. aureus ATCC 43300; ATCC43300, 20 h) | MIC (E. coli ATCC 35218; ATCC35218, 20 h) | MIC (A. baumannii ATCC 19606; ATCC19606, 20 h, A. baumannii 19606, CAMHB, 1 × 10⁵ CFU/mL, 0.25 to 128 μg/mL, 37 °C 20 h, duplicate, read visually (CLSI)) | MIC (S. aureus ATCC 25923; ATCC25923, 20 h) | MIC (K. pneumoniae ATCC 13883; ATCC13883, 20 h, K. pneumoniae 13883, CAMHB, 1 × 10⁵ CFU/mL, 0.25 to 128 μg/mL, 37 °C 20 h, duplicate, read visually (CLSI))
≤ 0.25 µg/mL: MIC (S. aureus ATCC 43300; ATCC43300, read-out: Bacterial MIC) | MIC ([1]; ATCC700603, read-out: Bacterial MIC, K. pneumoniae 700603, Historical run 22NOV23) | MIC (E. coli ATCC 35218; ATCC35218, read-out: Bacterial MIC) | MIC (A. baumannii ATCC 19606; ATCC19606, read-out: Bacterial MIC, A. baumannii 19606, Historical run 22NOV23) | MIC (A. baumannii ATCC 19606; ATCC19606, read-out: Bacterial MIC, A. baumannii 19606, Week 1 (12/6/2023)) | MIC (A. baumannii ATCC 19606; ATCC19606, read-out: Bacterial MIC, A. baumannii 19606, Week 2 (12/14/2023)) | MIC (S. aureus ATCC 25923; ATCC25923, read-out: Bacterial MIC) | MIC (K. pneumoniae ATCC 13883; ATCC13883, read-out: Bacterial MIC, K. pneumoniae 13883, Historical run 15NOV23) | MIC (K. pneumoniae ATCC 13883; ATCC13883, read-out: Bacterial MIC, K. pneumoniae 13883, Historical run 22NOV23) | MIC (K. pneumoniae ATCC 13883; ATCC13883, read-out: Bacterial MIC, K. pneumoniae 13883, Week 1 (12/6/2023)) | MIC (K. pneumoniae ATCC 13883; ATCC13883, read-out: Bacterial MIC, K. pneumoniae 13883, Week 2 (12/14/2023)) | MIC (P. aeruginosa PA01; PAO1, P. aeruginosa 15692 (PAO1), Historical run 22NOV23, read-out: Bacterial MIC) | MIC (P. aeruginosa PA01; PAO1, P. aeruginosa 15692 (PAO1), Week 2 (12/14/2023), read-out: Bacterial MIC)
8 µg/mL: MIC (P. aeruginosa PA01; PA01, 20 h, P. aeruginosa PA01, CAMHB, 1 × 10⁵ CFU/mL, 0.25 to 128 μg/mL, 37 °C 20 h, duplicate, read visually (CLSI), read-out: MIC) | Bacterial MIC (P. aeruginosa PA01 (Si); Week 2 (12/14/2023)) | MIC (P. aeruginosa PA01 (Si); Pseudomonas aeruginosa, Week 1 (12/6/2023), read-out: Bacterial MIC)
0.25 to 0.5 µg/mL: MIC (K. pneumoniae ATCC 13883; ATCC13883, read-out: Bacterial MIC, K. pneumoniae 13883, Historical run 19APRIL23)
64 µg/mL: MIC (P. aeruginosa MRSN 5519; MRSN5519, read-out: Bacterial MIC, P. aeruginosa 5519, Historical run 15NOV23) | MIC (P. aeruginosa MRSN 5519; MRSN5519, read-out: Bacterial MIC, P. aeruginosa 5519, Historical run 19APRIL23)
2 µg/mL: MIC (E. faecium ATCC 19434; ATCC19434, read-out: Bacterial MIC, E. faecium 19434, Historical run 22NOV23) | MIC (E. faecium ATCC 49224; ATCC49224, 20 h, E. faecium 49224, CAMHB, 1 × 10⁵ CFU/mL, 0.25 to 128 μg/mL, 37 °C 20 h, duplicate, read visually (CLSI)) | MIC (E. faecium ATCC 49224; ATCC49224, read-out: Bacterial MIC, E. faecium 49224, Historical run 19APRIL23) | MIC (E. faecium ATCC 49224; ATCC49224, read-out: Bacterial MIC, E. faecium 49224, Week 1 (12/6/2023)) | MIC (E. faecium ATCC 49224; ATCC49224, read-out: Bacterial MIC, E. faecium 49224, Week 2 (12/14/2023))
1 µg/mL: MIC (E. faecium ATCC 49224; ATCC49224, read-out: Bacterial MIC, E. faecium 49224, Historical run 15NOV23) | MIC (E. faecium ATCC 49224; ATCC49224, read-out: Bacterial MIC, E. faecium 49224, Historical run 22NOV23) | MIC (P. aeruginosa ATCC 27853; ATCC27853, read-out: Bacterial MIC, P. aeruginosa 27853, Historical run 15NOV23) | MIC (P. aeruginosa ATCC 27853; ATCC27853, read-out: Bacterial MIC, P. aeruginosa 27853, Historical run 19APRIL23)
0.5 to 1 µg/mL: MIC ([1]; ATCC700603, read-out: Bacterial MIC, K. pneumoniae 700603, Historical run 19APRIL23)
0.5 µg/mL: MIC ([1]; ATCC700603, 20 h, K. pneumoniae 700603, CAMHB, 1 × 10⁵ CFU/mL, 0.25 to 128 μg/mL, 37 °C 20 h, duplicate, read visually (CLSI)) | MIC ([1]; ATCC700603, read-out: Bacterial MIC, K. pneumoniae 700603, Historical run 15NOV23) | MIC ([1]; ATCC700603, read-out: Bacterial MIC, K. pneumoniae 700603, Week 1 (12/6/2023)) | MIC ([1]; ATCC700603, read-out: Bacterial MIC, K. pneumoniae 700603, Week 2 (12/14/2023)) | MIC (P. aeruginosa ATCC 27853; ATCC27853, 20 h, P. aeruginosa 27853, CAMHB, 1 × 10⁵ CFU/mL, 0.25 to 128 μg/mL, 37 °C 20 h, duplicate, read visually (CLSI)) | MIC (P. aeruginosa ATCC 27853; ATCC27853, read-out: Bacterial MIC, P. aeruginosa 27853, Historical run 22NOV23) | MIC (P. aeruginosa ATCC 27853; ATCC27853, read-out: Bacterial MIC, P. aeruginosa 27853, Week 1 (12/6/2023)) | MIC (P. aeruginosa ATCC 27853; ATCC27853, read-out: Bacterial MIC, P. aeruginosa 27853, Week 2 (12/14/2023)) | MIC (A. baumannii ATCC 19606; ATCC19606, read-out: Bacterial MIC, A. baumannii 19606, Historical run 15NOV23) | MIC (A. baumannii ATCC 19606; ATCC19606, read-out: Bacterial MIC, A. baumannii 19606, Historical run 19APRIL23) | MIC (P. aeruginosa PA01; PAO1, P. aeruginosa 15692 (PAO1), Historical run 15NOV23, read-out: Bacterial MIC) | MIC (P. aeruginosa PA01; PAO1, P. aeruginosa 15692 (PAO1), Historical run 19APRIL23, read-out: Bacterial MIC)
32 µg/mL: MIC (P. aeruginosa MRSN 5519; MRSN5519, 20 h, P. aeruginosa 5519, CAMHB, 1 × 10⁵ CFU/mL, 0.25 to 128 μg/mL, 37 °C 20 h, duplicate, read visually (CLSI)) | MIC (P. aeruginosa MRSN 5519; MRSN5519, read-out: Bacterial MIC, P. aeruginosa 5519, Historical run 22NOV23) | MIC (P. aeruginosa MRSN 5519; MRSN5519, read-out: Bacterial MIC, P. aeruginosa 5519, Week 1 (12/6/2023)) | MIC (P. aeruginosa MRSN 5519; MRSN5519, read-out: Bacterial MIC, P. aeruginosa 5519, Week 2 (12/14/2023))
4 µg/mL: MIC (E. faecium ATCC 19434; ATCC19434, 20 h, E. faecium 19434, CAMHB, 1 × 10⁵ CFU/mL, 0.25 to 128 μg/mL, 37 °C 20 h, duplicate, read visually (CLSI)) | MIC (E. faecium ATCC 19434; ATCC19434, read-out: Bacterial MIC, E. faecium 19434, Historical run 15NOV23) | MIC (E. faecium ATCC 19434; ATCC19434, read-out: Bacterial MIC, E. faecium 19434, Historical run 19APRIL23) | MIC (E. faecium ATCC 19434; ATCC19434, read-out: Bacterial MIC, E. faecium 19434, Week 1 (12/6/2023))
<= 0.250 µg/mL: Bacterial MIC (S. aureus ATCC 43300; Historical run 15NOV23) | Bacterial MIC (S. aureus ATCC 43300; Historical run 19APRIL23) | Bacterial MIC (S. aureus ATCC 43300; Historical run 22NOV23) | Bacterial MIC (S. aureus ATCC 43300; Week 2 (12/14/2023)) | Bacterial MIC (E. coli ATCC 35218; Historical run 15NOV23) | Bacterial MIC (E. coli ATCC 35218; Historical run 19APRIL23) | Bacterial MIC (E. coli ATCC 35218; Historical run 22NOV23) | Bacterial MIC (E. coli ATCC 35218; Week 2 (12/14/2023)) | Bacterial MIC (S. aureus ATCC 25923; Historical run 15NOV23) | Bacterial MIC (S. aureus ATCC 25923; Historical run 19APRIL23) | Bacterial MIC (S. aureus ATCC 25923; Historical run 22NOV23) | Bacterial MIC (S. aureus ATCC 25923; Week 2 (12/14/2023))
